# Test results published in patent US20070021360A1, “Compositions, formulations and kit with anti-sense oligonucleotide and anti-inflammatory steroid and/or obiquinone for treatment of respiratory and lung disesase” (priority 2001, published 2007).
# pKd: −log10 of the molar value.
# Tests used:
# [1] = tested on: adenosine A1 receptor; assay: Adenosine-induced bronchoconstriction (PC50 Adenosine) in allergic rabbits; assay type: in vivo; settings: allergic rabbits; for effect on PC50 Adenosine value: cross-over experiment, 20 mg total aerosolized oligo
# Procedure: A fortuitous hoology between the rabbit and human DNA sequences within the adenosine A1 gene overlapping the initiation codon permitted the use of the phosphorothioate anti-sense oligonucleotides initially designed for use against the human adenosine A1 receptor in a rabbit model. Neonatal New Zealand white Pasteurella-free rabbits were immunized intraperitoneally within 24 hours of birth with 312 antigen units/ml house dust mite (D. farinae) extract (Berkeley Biologicals, Berkeley, Calif.), mixed with 10% kaolin. Immunizations were repeated weekly for the first month and then biweekly for the next 2 months. At 3-4 months of age, eight sensitized rabbits were anesthetized and relaxed with a mixture of ketamine hydrochloride (44 mg/kg) and acepromazine maleate (0.4 mg/kg) administered intramuscularly. The rabbits were then laid supine in a comfortable position on a small molded, padded animal board and intubated with a 4.0-mm intratracheal tube (Mallinkrodt, Inc., Glens Falls, N.Y.). A polyethylene catheter of external diameter 2.4 mm with an attached latex balloon was passed into the esophagus and maintained at the same distance (approximately 16 cm) from the mouth throughout the experiments. The intratracheal tube was attached to a heated Fleisch pneumotachograph (size 00; DOM Medical, Richmond, Va.), and flow was measured using a Validyne differential pressure transducer (Model DP-45161927; Validyne Engineering Corp., Northridge, Calif.) driven by a Gould carrier amplifier (Model 11-4113; Gould Electronic, Cleveland, Ohio). The esophageal balloon was attached to one side of the differential pressure transducer, and the outflow of the intratracheal tube was connected to the opposite side of the pressure transducer to allow recording of transpulmonary pressure. Flow was integrated to give a continuous tidal volume, and measurements of total lung resistance (RL) and dynamic compliance (Cdyn) were calculated at isovolumetric and flow zero points, respectively, using an automated respiratory analyzer (Model 6; Buxco, Sharon, Conn.). Animals were randomized and on Day 1 pretreatment values for PC50 were obtained for aerosolized adenosine. Anti-sense (HAdA1AS) or mismatched control (HAdA1MM) oligonucleotides were dissolved in sterile physiological saline at a concentration of 5000 μg (5 mg) per 1.0 ml. […] Aerosols of either saline, adenosine, or anti-sense or mismatch oligonucleotides were generated by an ultrasonic nebulizer (DeVilbiss, Somerset, Pa.), producing aerosol droplets 80% of which were smaller than 5:m in diameter. In the first arm of the experiment, four randomly selected allergic rabbits were administered anti-sense oligonucleotide and four the mismatched control oligonucleotide. On the morning of the third day, PC50 values (the concentration of aerosolized adenosine in mg/ml required to reduce the dynamic compliance of the bronchial airway 50% from the baseline value) were obtained and compared to PC50 values obtained for these animals prior to exposure to oligonucleotide. Following a 1 week interval, animals were crossed over, with those previously administered mismatch control oligonucleotide now administered anti-sense oligonucleotide, and those previously treated with anti-sense oligonucleotide now administered mismatch control oligonucleotide. Treatment methods and measurements were identical to those employed in the first arm of the experiment. […] For the purpose of calculation, PC50 values for these animals were set at 20 mg/ml. The values given therefore represent a minimum figure for anti-sense effectiveness. Actual effectiveness was higher.
# Aerosols of either adenosine (0-20 mglnml), or anti-sense or one of two mismatch oligonucleotides (5 mg/ml) were separately prepared with an ultrasonic nebulizer (Model 646, DeVilbiss, Somerset, Pa.), which produced aerosol droplets, 80% of which were smaller than 5:m in diameter. […]
# [2] = target: T1, adenosine A1 receptor (Oryctolagus cuniculus, UniProt P34970); settings: mismatch controls; Nyce & Metzger (1997); cited from earlier work
# T1 construct: Airway smooth muscle tissue was dissected from each rabbit and a membrane fraction prepared; from tissue; host or cells: rabbit airway smooth muscle, crude plasma membranes
# T1 sequence (P34970 1-328): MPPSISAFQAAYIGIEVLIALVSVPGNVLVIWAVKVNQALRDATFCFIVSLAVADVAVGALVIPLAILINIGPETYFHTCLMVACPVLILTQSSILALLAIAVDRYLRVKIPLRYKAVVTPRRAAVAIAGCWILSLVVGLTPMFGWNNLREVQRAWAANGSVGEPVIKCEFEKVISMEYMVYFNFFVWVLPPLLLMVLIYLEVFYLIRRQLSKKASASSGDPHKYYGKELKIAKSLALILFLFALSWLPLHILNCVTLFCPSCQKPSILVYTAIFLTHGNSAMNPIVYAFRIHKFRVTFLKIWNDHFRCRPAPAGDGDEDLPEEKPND
# [3] = tested on: adenosine A3 receptor; assay: Inflammatory cells in bronchial lavage fluid after dust mite allergen; assay type: in vivo, rabbit; settings: allergic rabbits, 20 mg oligo, lavage 3 hours later
# Procedure: The number of inflammatory cells was determined in their bronchial lavage fluid 3 hours later by counting at least 100 viable cells per lavage. The effect of anti-sense oligos III (SEQ ID NO: 9377) and IV (SEQ ID NO: 9378) upon granulocytes, and upon total cells in bronchial lavage were assessed following exposure to dust mite allergen. […] As is known in the art, granulocytes, especially eosinophils, are the primary inflammatory cells of asthma and the administration of anti-sense oligos III (SEQ ID NO: 9377) and IV (SEQ ID NO: 9378) reduced their numbers by 40% and 66%, respectively. […] This is also an important indicator of anti-inflammatory activity by the present anti-adenosine A3 agents of the invention. Inflammation is known to underlie bronchial hyperresponsiveness and allergen-induced bronchoconstriction in asthma. Both anti-sense oligonucleotides III (SEQ ID NO: 9377) and IV (SEQ ED NO: 9378), which are targeted to the adenosine A3 receptor, are representative of an important new class of anti-inflammatory agents which may be designed to specifically target the lung receptors of each species.
# [4] = tested on: allergic rabbits; assay: Allergen-induced airway obstruction in allergic rabbits; assay type: in vivo, rabbit; settings: compared with mismatched control; from area under the plotted curve; p<0.05
# [5] = tested on: allergic rabbits; assay: Allergen-induced bronchial hyperresponsiveness (PC50 Histamine) in allergic rabbits; assay type: in vivo, rabbit; settings: compared to mismatched control; from PC50 Histamine value; p<0.05
# Procedure: Each allergic rabbit was administered histamine by aerosol to determine their baseline hyperresponsiveness. Aerosols of either saline or hitamine were generated using a DeVilbiss nebulizer (DeVilbiss, Somerset, Pa.) for 30 seconds and then for 2 minutes at each dose employed. The ultrasonic nebulizer produced aerosol droplets of which 80% were <5 micron in diameter. The histamine aerosol was administered in increasing concentrations (0.156 to 80 mg/ml) and measurements of pulmonary function were made after each dose. The […] was then determined by calculating the concentration of histamine (mg/ml) required to reduce the Cdyn 50% from baseline (PC50 Histamine)
# [6] = tested on: Intracellular Adenosine; assay: In vivo effect on adenosine levels in rat tissues (HPLC); parameters: species or system Fischer 344 rats
# Procedure: Folinic acid (50 mg/kg) was administered intraperitoneally once daily for fourteen days. […] Hearts were removed from animals and flash frozen in liquid nitrogen with 10 seconds of death. Liver and lungs were removed en bloc and flash frozen with 30 seconds of death. Brain tissue was subsequently dissected.
# [7] = tested on: HT-29 SF cells; assay: Reversal of DHEA-mediated growth inhibition; assay type: cell-based, human; settings: 25 μM DHEA; supplement in medium; 48 hours
# [8] = tested on: HT-29 SF cells; assay: Reversal of DHEA effect on cell cycle; assay type: cell-based, human; settings: 25 FM DHEA; supplement in medium; 48 and 72 hours
# [9] = target: B2 bradykinin receptor (rabbit airway smooth muscle membranes) (rabbit) (UniProt Q28642); assay: radioligand binding, airway smooth muscle membranes; saline control rabbits
# Sequence of B2 bradykinin receptor (rabbit airway smooth muscle membranes) (rabbit) (Q28642 whole entry): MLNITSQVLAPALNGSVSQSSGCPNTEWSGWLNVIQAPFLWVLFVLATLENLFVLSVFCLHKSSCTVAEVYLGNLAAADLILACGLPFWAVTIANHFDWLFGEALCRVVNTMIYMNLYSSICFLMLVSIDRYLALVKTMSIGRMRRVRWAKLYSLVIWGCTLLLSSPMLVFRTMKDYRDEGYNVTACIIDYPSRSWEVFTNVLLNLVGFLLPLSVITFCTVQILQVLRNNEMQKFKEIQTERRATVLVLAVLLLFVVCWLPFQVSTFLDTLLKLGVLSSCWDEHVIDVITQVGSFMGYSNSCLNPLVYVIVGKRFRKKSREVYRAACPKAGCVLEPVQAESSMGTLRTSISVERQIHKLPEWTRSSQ
# [10] = target: B2 bradykinin receptor (rabbit airway smooth muscle membranes) (rabbit) (UniProt Q28642); assay: radioligand binding, airway smooth muscle membranes; rabbits treated with B2MM mismatch control, 2 mg
# [11] = target: B2 bradykinin receptor (rabbit airway smooth muscle membranes) (rabbit) (UniProt Q28642); assay: radioligand binding, airway smooth muscle membranes; rabbits treated with A1MM1 mismatch control, 2 mg
# [12] = target: B2 bradykinin receptor (rabbit airway smooth muscle membranes) (rabbit) (UniProt Q28642); assay: radioligand binding, airway smooth muscle membranes; rabbits treated with B2MM mismatch control, 20 mg
# [13] = target: B2 bradykinin receptor (rabbit airway smooth muscle membranes) (rabbit) (UniProt Q28642); assay: radioligand binding, airway smooth muscle membranes; rabbits treated with A1MM1 mismatch control, 20 mg
# [14] = target: B2 bradykinin receptor (rabbit airway smooth muscle membranes) (rabbit) (UniProt Q28642); assay: radioligand binding, airway smooth muscle membranes; rabbits treated with B2MM mismatch control, 0.2 mg
# [15] = target: B2 bradykinin receptor (rabbit airway smooth muscle membranes) (rabbit) (UniProt Q28642); assay: radioligand binding, airway smooth muscle membranes; rabbits treated with A1 receptor anti-sense oligo, 2 mg
# [16] = target: B2 bradykinin receptor (rabbit airway smooth muscle membranes) (rabbit) (UniProt Q28642); assay: radioligand binding, airway smooth muscle membranes; rabbits treated with A1 receptor anti-sense oligo, 20 mg
# [17] = target: B2 bradykinin receptor (rabbit airway smooth muscle membranes) (rabbit) (UniProt Q28642); assay: radioligand binding, airway smooth muscle membranes; rabbits treated with A1 receptor anti-sense oligo, 0.2 mg
# [18] = target: B2 bradykinin receptor (rabbit airway smooth muscle membranes) (rabbit) (UniProt Q28642); assay: radioligand binding, airway smooth muscle membranes; rabbits treated with B2A bradykinin receptor anti-sense oligo, 2 mg
# [19] = target: B2 bradykinin receptor (rabbit airway smooth muscle membranes) (rabbit) (UniProt Q28642); assay: radioligand binding, airway smooth muscle membranes; rabbits treated with B2A bradykinin receptor anti-sense oligo, 20 mg
# [20] = target: B2 bradykinin receptor (rabbit airway smooth muscle membranes) (rabbit) (UniProt Q28642); assay: radioligand binding, airway smooth muscle membranes; rabbits treated with B2A bradykinin receptor anti-sense oligo, 0.2 mg
# [21] = once daily 14 days, DHEA 300 mg/kg, methyltestosterone 40 mg/kg (120 mg/kg in M + F.A.), folinic acid 50 mg/kg, mean ± SEM
# [22] = daily for two weeks, DHEA or high dose methyltestosterone
# [23] = methyltestosterone 120 mg/kg, mean ± SEM
compound,measurement,setting,value
"5′-GATGGAGGCGGGCATGGCGGG-3 [Oligo A1MM3, reference compound]",effect on PC50 Adenosine value,[1],no effect
same,"effect upon any of the targeted receptors (A1, A2 or B2)",[2],absolutely no effect
"5′-GGC CCA GGG CCA GCC-31 (antisense GGCCCAGGGCCAGCC; all phosphorothioate, sugars by position and methylation of C not given here) [Oligo IV, targets adenosine A3 receptor mRNA +386 to +401]",reduction of granulocyte numbers in bronchial lavage,[3],66%
same,reduction of total number of cells in bronchial lavage fluid,[3],40%
"5′-GTAGGTGGCGGGCAAGGCGGG-3′ (antisense GTAGGTGGCGGGCAAGGCGGG; phosphorothioate, further chemistry not given here) [Oligo A1MM2, mismatch control for anti-sense oligo I, reference compound]",PC50 Adenosine,[1]; Total Dose 0.2 mg,2.51 ± 0.46 mg Adenosine
same,PC50 Adenosine,[1]; Total Dose 2.0 mg,3.13 ± 0.71 mg Adenosine
same,PC50 Adenosine,[1]; Total Dose 20 mg,3.25 ± 0.34 mg Adenosine
same,effect on PC50 Adenosine value,[1],no effect
same,inhibition of allergen-induced airway obstruction,[4],complete lack of effect
same,inhibition of allergen-induced BHR,[5],complete lack of effect
same,"effect upon any of the targeted receptors (A1, A2 or B2)",[2],absolutely no effect
"Nc1nc(=O)c2c([nH]1)NCC(CNc1ccc(C(=O)N[C@@H](CCC(=O)O)C(=O)O)cc1)N2C=O (mixture of isomers) [Folinic Acid (F.A.), Folinic acid]",effect on adenosine levels when administered alone,[6]; folinic acid 50 mg/kg intraperitoneally,increase in adenosine levels for all organs studied
same,effect of co-administration on steroid-mediated adenosine depletion,[6]; folinic acid co-administered with DHEA or methyltestosterone,completely abrogated steroid-mediated adenosine depletion
same,"Intracellular Adenosine, Brain",[6]; [21],0.72 ± 0.09 nmol/mg protein
same,"Intracellular Adenosine, Heart",[6]; [21],12.4 ± 2.1 nmol/mg protein
"CC(C)CCC[C@@H](C)[C@H]1CC[C@H]2[C@@H]3CC=C4C[C@@H](O)CC[C@]4(C)[C@H]3CC[C@]12C [CH, cholesterol]",reversal of DHEA-induced growth inhibition,[7],no such effect
same,prevention of DHEA-induced S phase depletion,[8],very little effect at 48 hours and no effect at 72 hours
"C[C@@](O)(CCO)CC(=O)O [MVA, mevalonic acid]",reversal of DHEA-induced growth inhibition,[7],partially overcome
same,prevention of DHEA-induced S phase depletion,[8],partially prevented this effect in the initial 48 hours but not after 72 hours
"C[C@]12CCC(=O)C=C1CC[C@@H]1[C@@H]2CC[C@@]2(C)[C@H]1CC[C@]2(C)O [Methyltestosterone, methyltestosterone]",depletion of adenosine in brain,[6]; [22],34%
same,depletion of adenosine in heart,[6]; [22],22%
same,"Intracellular Adenosine, Brain",[6]; in vivo,0.42 ± 0.06 nmol/mg protein
same,"Intracellular Adenosine, Heart",[6]; in vivo,8.3 ± 1.0 nmol/mg protein
same,"Intracellular Adenosine, Brain",[6]; [23],0.32 ± 0.03 nmol/mg protein
same,"Intracellular Adenosine, Heart",[6]; [23],6.0 ± 0.4 nmol/mg protein
"CC(C)=CCC/C(C)=C/CC/C(C)=C/CC/C=C(\C)CC/C=C(\C)CCC=C(C)C [SQ, squalene]",reversal of DHEA-induced growth inhibition,[7],no such effect
[3H]NPC 17731 (peptide),pKd,[9],9.41
same,pKd,[10],9.43
same,pKd,[11],9.42
same,pKd,[12],9.39
same,pKd,[13],9.46
same,pKd,[14],9.44
same,pKd,[15],9.39
same,pKd,[16],9.41
same,pKd,[17],9.47
same,pKd,[18],9.47
same,pKd,[19],9.42
same,pKd,[20],9.46
